Measured values taken from patent US20080058300A1, “Induction of weight loss and the selective inhibition of PTP1B” (priority 2006, published 2008).

Columns and labels:
TCPTP = target: T1, TCPTP (Homo sapiens, UniProt P17706); experiment: TCPTP enzyme inhibition assay (DiFMUP substrate, spectrofluorimetric); format: biochemical
T1 construct: MDS Pharma (contract assay); host or cells: E. coli
T1 sequence (P17706 1-415): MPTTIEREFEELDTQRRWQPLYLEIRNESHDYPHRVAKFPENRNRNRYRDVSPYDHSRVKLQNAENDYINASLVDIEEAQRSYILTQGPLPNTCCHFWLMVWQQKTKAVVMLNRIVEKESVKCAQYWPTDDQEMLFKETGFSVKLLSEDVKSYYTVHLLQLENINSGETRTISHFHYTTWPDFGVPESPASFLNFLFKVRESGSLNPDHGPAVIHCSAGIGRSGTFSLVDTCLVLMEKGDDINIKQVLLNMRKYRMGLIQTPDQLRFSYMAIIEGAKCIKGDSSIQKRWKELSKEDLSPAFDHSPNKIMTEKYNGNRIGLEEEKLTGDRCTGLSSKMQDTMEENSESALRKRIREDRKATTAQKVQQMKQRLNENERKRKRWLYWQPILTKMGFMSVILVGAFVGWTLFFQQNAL
Protocol: In the PTP1B assay, phosphatase activity was quantitated through ELISA analysis of remaining tyrosine phosphopeptide after 30-minute incubations at room temperature with various concentrations of 1436 (0.05 μM to […]). […] The TCPTP assay required a 15-minute preincubation of enzyme and substrate at 37° C. followed by 60-minute incubations at 37° C. with various concentrations of 1436 (0.5 μM to 50 μM). TCPTP activity was assessed by spectrofluorimetric quantitation of DiFMU.

[1] = target: T2, Dopamine Transporter (DAT) (Homo sapiens, UniProt Q01959); experiment: Radioligand binding assay, [125I] RTI-55, Dopamine Transporter; conditions: human recombinant, CHO-K1 cell membranes; [125I] RTI-55 0.15 nM; 3 hours at 4° C.; read-out: ˜IC50, inhibition of binding to DAT
T2 construct: expressed in transfected cells; host or cells: CHO-K1 cells (membrane preparations)
Protocol: (§1) Inhibition of binding to the Dopamine Transporter (DAT) and Norepinephrine Transporter (NET) by MSI-1436 was determined in radioligand binding assays using human recombinant proteins expressed in CHO-K1 or MDCK cells, respectively. Membrane preparations were incubated with [^125I] RTI-55 (0.15 nM for DAT, 0.20 nM for NET) in the presence of 1436 (0.005 μM to 50 μM) for 3 hours at 4° C. IC50 values were determined as in PTP1B assays (See Table 2).

[2] = target: T3, Norepinephrine Transporter (NET) (Homo sapiens, UniProt P23975); experiment: Radioligand binding assay, [125I] RTI-55, Norepinephrine Transporter; conditions: human recombinant, MDCK cell membranes; [125I] RTI-55 0.20 nM; 3 hours at 4° C.; read-out: ˜IC50, inhibition of binding to NET
T3 construct: expressed in transfected cells; host or cells: MDCK cells (membrane preparations)
Protocol: as §1

[3] = target: T4, CHO-K1 cells expressing dopamine transporters (Homo sapiens, UniProt Q01959); experiment: Cellular uptake of [3H] Dopamine; format: cell-based
T4 construct: expressed in transfected cells; host or cells: CHO-K1 cells
Protocol: (§2) After 10-minute incubations of the cells with radioactive ligands in the presence of compound at room temperature, quantitation of [^3H] Dopamine or [^3H] […] Significance criteria for antagonism was met if there was ≧50% inhibition of uptake as compared to the induced response of nomifensine (DAT) or desipramine (NET).

[4] = target: T5, MDCK cells expressing norepinephrine transporters (Homo sapiens, UniProt P23975); experiment: Cellular uptake of [3H] Norepinephrine; format: cell-based
T5 construct: expressed in transfected cells; host or cells: MDCK cells
Protocol: as §2

[5] = tested on: male AKR/J mice on 10%, 45% or 60% fat kcal diet; experiment: Induction of weight loss in diet induced obese mice; format: in vivo
Excerpt: (§3) Mice and Study Design. At weaning, male AKR/J mice from Jackson Laboratories (Bar Harbor, Me., USA) were placed on a 10%, 45%, or 60% fat kcal diet (Research Diets, Inc., New Brunswick, N.J., USA). Mice were weighed weekly and treatment began after 13-14 weeks of access to the different fat diets. Immediately before the start of treatment, mice from all three diets were randomly subdivided further into three groups within the same fat composition diet with an even weight distribution. All mice were dosed (i.p. route) on a q7dx4 schedule, where the first dose of 1436 was 10 mg/kg and all remaining doses were 5 mg/kg. Saline-treated animals were administered 10 mL/kg. Pair-fed animals were dosed with saline (10 mL/kg) on the same q7dx4 schedule on a 1-day stagger from the other groups. As a measure of food consumption, remaining food was weighed daily. Pair-fed groups were allotted the exact amount of food consumed by 1436-treated groups in the 24 hours prior. All procedures involving mice were performed in accordance with protocols approved by the Institutional Animal Care and Use Committee.

[6] = tested on: male AKR/J mice on 10%, 45% or 60% fat kcal diet; experiment: Body composition of diet induced obese mice at end of study; format: in vivo; conditions: i.p. q7dx4, 10 then 5 mg/kg
Excerpt: as §3, with “Pair-fed groups were allotted the exact amount of food consumed by 1436-treated groups in the 24 hours prior. All procedures involving mice were performed in accordance with protocols approved by the Institutional Animal Care and Use Committee.” left out
Body Composition. Body composition (percent moisture, fat, protein and ash) was determined according to methods described with modifications (Official Methods of Analysis of AOAC INTERNATIONAL, 2000). […] Protein was determined through the combustion method for nitrogen detection and a factor of 6.25 was used to convert percent nitrogen to percent protein. To determine ash, samples were ignited at 550° C. for 5 hours and quantified gravimetrically.

[7] = tested on: male AKR/J mice on 60% fat diet; experiment: Histology of adipose tissue in mice on 60% fat diet; format: in vivo; conditions: mouse on 60% fat diet; i.p. q7dx4, 10 then 5 mg/kg
Excerpt: as §3
Histology. Intrascapular brown adipose tissue was fixed in 10% zinc formalin (Fisher Scientific, Kalamazoo, Mich., USA) for 48 hours and transferred to 70% EtOH. Tissues were embedded in paraffin and […] sections were applied to glass microscope slides. […]

HepG2 cells = experiment: Insulin receptor-beta phosphorylation in HepG2 cells (immunoprecipitation, Western blot); format: cell-based
Protocol: HepG2 cells (immortalized hepatocyte cells) were treated with 10 nM insulin, […], neither, or both for either 30 minutes or 3 hours in vitro. […] No difference in the amounts of insulin receptor-beta (IR-beta) was noted (Panel A). […] This effect was slightly diminished at 3 hours.

ob/ob mice = experiment: Ex vivo liver IRS-1 phosphorylation in ob/ob mice (effect on PTP1B); conditions: single dose 10 mg/kg i.p., 24 hours after treatment, livers harvested 2 min after portal vein insulin
Protocol: To examine the effect of MSI-1436 on PTP1B ex vivo, ob/ob mice were treated with either vehicle, MSI-1436 (single dose, 10 mg/kg, i.p.) or pair-fed control mice (n=4 per group). Twenty-four hours after the single treatment, mice were anesthetized and portal vein was exposed via an incision. Insulin or phosphate buffered saline (PBS) was injected into the portal vein and livers were harvested 2 min after the injection. Livers were lysed and lysates were immunoprecipitated with anti-insulin receptor substrate-1 (IRS-1) and then blotted for phosphotyrosine with the resultant blots representing phosphorylated insulin receptor substrate-1 (P-IRS-1). The blots were analyzed using imaging software.

T5 sequence (P23975 whole entry): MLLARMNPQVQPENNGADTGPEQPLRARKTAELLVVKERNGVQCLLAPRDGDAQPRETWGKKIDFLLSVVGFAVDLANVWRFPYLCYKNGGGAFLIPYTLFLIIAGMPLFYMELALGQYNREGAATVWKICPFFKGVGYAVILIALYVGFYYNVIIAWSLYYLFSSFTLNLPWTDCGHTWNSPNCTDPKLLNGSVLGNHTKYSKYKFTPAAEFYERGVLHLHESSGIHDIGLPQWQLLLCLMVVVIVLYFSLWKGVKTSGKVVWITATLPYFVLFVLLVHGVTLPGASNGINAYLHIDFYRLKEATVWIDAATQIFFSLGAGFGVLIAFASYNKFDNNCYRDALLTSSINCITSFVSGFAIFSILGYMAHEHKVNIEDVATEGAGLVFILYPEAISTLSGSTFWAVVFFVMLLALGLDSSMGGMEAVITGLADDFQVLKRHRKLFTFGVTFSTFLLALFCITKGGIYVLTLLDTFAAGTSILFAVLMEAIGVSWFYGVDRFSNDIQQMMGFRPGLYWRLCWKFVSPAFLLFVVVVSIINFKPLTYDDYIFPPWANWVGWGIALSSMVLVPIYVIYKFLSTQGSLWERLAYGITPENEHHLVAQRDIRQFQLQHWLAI
T4 sequence (Q01959 whole entry): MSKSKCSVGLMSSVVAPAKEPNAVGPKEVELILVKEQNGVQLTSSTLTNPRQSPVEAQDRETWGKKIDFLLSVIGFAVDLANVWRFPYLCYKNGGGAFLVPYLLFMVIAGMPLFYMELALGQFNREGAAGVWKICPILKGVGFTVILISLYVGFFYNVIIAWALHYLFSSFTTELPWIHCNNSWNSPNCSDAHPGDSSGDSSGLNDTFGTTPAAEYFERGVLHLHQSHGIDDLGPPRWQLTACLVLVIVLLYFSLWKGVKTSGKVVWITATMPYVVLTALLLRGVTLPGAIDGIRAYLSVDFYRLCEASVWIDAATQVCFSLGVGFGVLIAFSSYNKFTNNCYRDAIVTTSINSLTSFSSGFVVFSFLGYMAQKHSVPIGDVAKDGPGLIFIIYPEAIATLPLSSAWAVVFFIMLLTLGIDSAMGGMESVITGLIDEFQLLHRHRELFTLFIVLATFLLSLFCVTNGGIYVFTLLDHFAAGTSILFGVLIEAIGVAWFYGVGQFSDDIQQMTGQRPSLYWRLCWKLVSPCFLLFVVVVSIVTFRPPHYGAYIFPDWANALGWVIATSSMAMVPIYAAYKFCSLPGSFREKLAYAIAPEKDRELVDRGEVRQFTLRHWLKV
T3 sequence (P23975 whole entry): as the sequence (P23975 whole entry) above
T2 sequence (Q01959 whole entry): as the sequence (Q01959 whole entry) above

inhibition of TCPTP at the concentrations tested (TCPTP; 1436 0.5 μM to 50 μM): no inhibition
IC50 (TCPTP; human recombinant protein expressed in E. Coli, DiFMUP 10 μM, 60-minute incubation at 37° C., estimated): > 50 µM
IC50 [1]: 1.74 µM
IC50 [2]: 3.24 µM
inhibition at 0.05 µM ([3]; CHO-K1, 1436 0.05 μM): 1%
inhibition at 0.25 µM ([3]; CHO-K1, 1436 0.25 μM): 39%
inhibition at 0.5 µM ([3]; CHO-K1, 1436 0.5 μM): 57%
inhibition at 2.5 µM ([3]; CHO-K1, 1436 2.5 μM): 81%
inhibition at 5 µM ([3]; CHO-K1, 1436 5.0 μM): 94%
IC50 ([3]; CHO-K1 cells, 10-minute incubation at room temperature, read-out: IC50, inhibition of Dopamine uptake): 0.422 µM
IC50 ([4]; MDCK cells, 10-minute incubation at room temperature, read-out: IC50, inhibition of Norepinephrine uptake): 0.718 µM
inhibition at 0.05 µM ([4]; MDCK, 1436 0.05 μM): 22%
inhibition at 0.25 µM ([4]; MDCK, 1436 0.25 μM): 26%
inhibition at 0.5 µM ([4]; MDCK, 1436 0.5 μM): 33%
inhibition at 2.5 µM ([4]; MDCK, 1436 2.5 μM): 78%
inhibition at 5 µM ([4]; MDCK, 1436 5.0 μM): 95%
SMILES: CC(C)[C@@H](CC[C@@H](C)[C@H]1CC[C@H]2[C@@H]3[C@H](O)C[C@H]4C[C@@H](NCCCNCCCCNCCCN)CC[C@]4(C)[C@H]3CC[C@]12C)OS(=O)(=O)O [compound 1436]
body weight after treatment ([5]; 10%, 45% and 60% fat diet groups, i.p. q7dx4, first dose 10 mg/kg, remaining 5 mg/kg, three weeks): lost weight
effect on weight loss versus pair-fed group ([5]; i.p. q7dx4, 10 then 5 mg/kg, greatest in 60% fat group (p value 0.013)): greater than the effect of diet alone
% body fat (body composition at end of study) ([6]; all diets (10%, 45%, 60% fat)): lose significant % body fat
loss of body fat versus pair-fed groups [6]: trend for greater loss of body fat
amount of fat in brown adipose tissue (BAT), histology [7]: lost all of the fat gained by the 60% diet
amount of fat in white adipose tissue (WAT), histology [7]: lost all of the fat gained by the 60% diet
IR-beta phosphorylation, insulin plus MSI-1436 versus insulin alone (HepG2 cells; 10 nM insulin and 10 µM MSI-1436, 30 minutes): increased IR-beta phosphorylation
IR-beta phosphorylation, MSI-1436 alone (HepG2 cells; 10 µM MSI-1436 without insulin, 30 minutes or 3 hours): did not induce phosphorylation
insulin-induced phosphorylation of IRS-1 in liver (ob/ob mice): enhanced the insulin-induced phosphorylation of IRS-1
